Test results as given in ChEMBL document CHEMBL1201862, “PubChem BioAssay data set” (2004).
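Interpolation was linear, between the two tested concentrations surrounding the appropriate level; five concentrations were tested over 48 hours in 96-well plates. The concentration for 50% growth inhibition is given as GI50.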 Calls of active or inactive are those of the source. Rule as the data show it: active = GI50 up to about 1.1 µM and inactive = higher.

Columns and labels:
Assay in all cases: growth of human tumour cells (NCI), 48 h
786-0 = test system: 786-0
A498 = test system: A498
A549 = test system: A549
ACHN = test system: ACHN
BT-549 = test system: BT-549
CAKI-1 = test system: CAKI-1
CCRF-CEM = test system: CCRF-CEM
COLO 205 = test system: COLO 205
DU-145 = test system: DU-145
HCT-15 = test system: HCT-15
HL-60 = test system: HL-60
HOP-62 = test system: HOP-62
HOP-92 = test system: HOP-92
HT-29 = test system: HT-29
Hs-578T = test system: Hs-578T
IGROV-1 = test system: IGROV-1
K562 = test system: K562
KM12 = test system: KM12
LOX IMVI = test system: LOX IMVI
M14 = test system: M14
MCF7 = test system: MCF7
MDA-MB-231 = test system: MDA-MB-231
MDA-MB-435 = test system: MDA-MB-435
MDA-N = test system: MDA-N
MOLT-4 = test system: MOLT-4
Malme-3M = test system: Malme-3M
NCI-H226 = test system: NCI-H226
NCI-H23 = test system: NCI-H23
NCI-H460 = test system: NCI-H460
NCI/ADR-RES = test system: NCI/ADR-RES
OVCAR-3 = test system: OVCAR-3
OVCAR-4 = test system: OVCAR-4
OVCAR-5 = test system: OVCAR-5
OVCAR-8 = test system: OVCAR-8
PC-3 = test system: PC-3
RPMI-8226 = test system: RPMI-8226
RXF 393 = test system: RXF 393
SF-268 = test system: SF-268
SF-295 = test system: SF-295
SF-539 = test system: SF-539
SK-MEL-28 = test system: SK-MEL-28
SK-MEL-2 = test system: SK-MEL-2
SK-MEL-5 = test system: SK-MEL-5
SK-OV-3 = test system: SK-OV-3
SN12C = test system: SN12C
SNB-19 = test system: SNB-19
SNB-75 = test system: SNB-75
SR = test system: SR
SW-620 = test system: SW-620
T47D = test system: T47D
TK-10 = test system: TK-10
U-251 = test system: U-251
UACC-257 = test system: UACC-257
UACC-62 = test system: UACC-62
UO-31 = test system: UO-31
EKVX = test system: EKVX
HCT-116 = test system: HCT-116
NCI-H522 = test system: NCI-H522

In the case of `COc1ccc(C[C@@H]2OC3(C=CC(=O)CC3Sc3ccccc3)O[C@H]2Cc2ccc(OC)cc2)cc1` (stereo not given in full), the GI50 (786-0) is reported as 0.151 µM (active), the GI50 (A498) is reported as 4.08 µM (inactive) and the GI50 (A549) is reported as 3.23 µM (inactive). The GI50 (ACHN) was 1.36 µM (inactive), the GI50 (BT-549) was 0.223 µM (active) and the GI50 (CAKI-1) was 2.05 µM (inactive). The GI50 (CCRF-CEM) was 0.216 µM (active), the GI50 (COLO 205) was 1.85 µM (inactive) and the GI50 (DU-145) was 2.23 µM (inactive). The GI50 (HCT-15) was 0.993 µM, the GI50 (HL-60) was 1.12 µM (active) and the GI50 (HOP-62) was 0.432 µM (active). The GI50 (HOP-92) was 1.14 µM (inactive), the GI50 (HT-29) was 1.79 µM (inactive) and the GI50 (Hs-578T) was 1.41 µM (inactive). For the same compound, the GI50 (IGROV-1) was 0.904 µM (active), the GI50 (K562) was 1.9 µM (inactive) and the GI50 (KM12) was 2.11 µM (inactive). For the same compound, the GI50 (LOX IMVI) was 0.458 µM (active), the GI50 (M14) was 1.16 µM (inactive) and the GI50 (MCF7) was 0.388 µM (active). The GI50 (MDA-MB-231) was 2.5 µM (inactive), the GI50 (MDA-MB-435) was 1.9 µM (inactive) and the GI50 (MDA-N) was 1.52 µM (inactive). For the same compound, the GI50 (MOLT-4) was 0.282 µM (active), the GI50 (Malme-3M) was 1.85 µM (inactive) and the GI50 (NCI-H226) was 1.53 µM (inactive). The GI50 (NCI-H23) was 1.71 µM (inactive), the GI50 (NCI-H460) was 3.01 µM (inactive) and the GI50 (NCI/ADR-RES) was 1.48 µM (inactive). The GI50 (OVCAR-3) was 1.64 µM (inactive), the GI50 (OVCAR-4) was 1.6 µM (inactive) and the GI50 (OVCAR-5) was 1.14 µM (inactive). For the same compound, the GI50 (OVCAR-8) was 0.29 µM (active), the GI50 (PC-3) was 1.72 µM (inactive) and the GI50 (RPMI-8226) was 0.31 µM (active). The GI50 (RXF 393) was 0.107 µM (active), the GI50 (SF-268) was 0.335 µM (active) and the GI50 (SF-295) was 1.91 µM (inactive). For the same compound, the GI50 (SF-539) was 1.64 µM (inactive), the GI50 (SK-MEL-28) was 1.86 µM (inactive) and the GI50 (SK-MEL-2) was 1.53 µM (inactive). For the same compound, the GI50 (SK-MEL-5) was 1.37 µM (inactive), the GI50 (SK-OV-3) was 3.15 µM (inactive) and the GI50 (SN12C) was 1.61 µM (inactive). For the same compound, the GI50 (SNB-19) was 2.61 µM (inactive), the GI50 (SNB-75) was 1.69 µM (inactive) and the GI50 (SR) was 0.187 µM (active). For the same compound, the GI50 (SW-620) was 0.303 µM (active), the GI50 (T47D) was 0.813 µM (active) and the GI50 (TK-10) was 1.67 µM (inactive). For the same compound, the GI50 (U-251) was 1.42 µM (inactive), the GI50 (UACC-257) was 1.47 µM (inactive) and the GI50 (UACC-62) was 2.15 µM (inactive). The GI50 (UO-31) was 1.09 µM (active).

`O=C(O)CSC1=NCCN1` was tested, and the GI50 (786-0) was > 100 µM (inactive), the GI50 (A498) was > 100 µM (inactive) and the GI50 (A549) was > 100 µM (inactive). For the same compound, the GI50 (ACHN) was > 100 µM (inactive), the GI50 (BT-549) was > 100 µM (inactive) and the GI50 (CAKI-1) was > 100 µM (inactive). For the same compound, the GI50 (CCRF-CEM) was > 100 µM (inactive), the GI50 (COLO 205) was > 100 µM (inactive) and the GI50 (DU-145) was > 100 µM (inactive). The GI50 (EKVX) was > 100 µM (inactive), the GI50 (HCT-116) was > 100 µM (inactive) and the GI50 (HCT-15) was greater than 100 µM. For the same compound, the GI50 (HOP-62) was > 100 µM (inactive), the GI50 (HOP-92) was > 100 µM (inactive) and the GI50 (HT-29) was > 100 µM (inactive). The GI50 (Hs-578T) was > 100 µM (inactive), the GI50 (IGROV-1) was > 100 µM (inactive) and the GI50 (K562) was > 100 µM (inactive). For the same compound, the GI50 (KM12) was > 100 µM (inactive), the GI50 (LOX IMVI) was > 100 µM (inactive) and the GI50 (M14) was > 100 µM (inactive). The GI50 (MCF7) was > 100 µM (inactive), the GI50 (MDA-MB-231) was > 100 µM (inactive) and the GI50 (MDA-MB-435) was > 100 µM (inactive). The GI50 (MDA-N) was > 100 µM (inactive), the GI50 (MOLT-4) was > 100 µM (inactive) and the GI50 (Malme-3M) was > 100 µM (inactive). For the same compound, the GI50 (NCI-H23) was > 100 µM (inactive), the GI50 (NCI-H460) was > 100 µM (inactive) and the GI50 (NCI-H522) was > 100 µM (inactive). The GI50 (NCI/ADR-RES) was > 100 µM (inactive), the GI50 (OVCAR-3) was > 100 µM (inactive) and the GI50 (OVCAR-4) was > 100 µM (inactive). For the same compound, the GI50 (OVCAR-5) was > 100 µM (inactive), the GI50 (OVCAR-8) was > 100 µM (inactive) and the GI50 (PC-3) was > 100 µM (inactive). For the same compound, the GI50 (RPMI-8226) was > 100 µM (inactive), the GI50 (RXF 393) was > 100 µM (inactive) and the GI50 (SF-268) was > 100 µM (inactive). For the same compound, the GI50 (SF-295) was > 100 µM (inactive), the GI50 (SF-539) was > 100 µM (inactive) and the GI50 (SK-MEL-28) was > 100 µM (inactive). The GI50 (SK-MEL-2) was > 100 µM (inactive), the GI50 (SK-MEL-5) was > 100 µM (inactive) and the GI50 (SK-OV-3) was > 100 µM (inactive). For the same compound, the GI50 (SN12C) was > 100 µM (inactive), the GI50 (SNB-19) was > 100 µM (inactive) and the GI50 (SNB-75) was > 100 µM (inactive). For the same compound, the GI50 (SR) was > 100 µM (inactive), the GI50 (SW-620) was > 100 µM (inactive) and the GI50 (T47D) was > 100 µM (inactive). For the same compound, the GI50 (TK-10) was > 100 µM (inactive), the GI50 (U-251) was > 100 µM (inactive) and the GI50 (UACC-62) was > 100 µM (inactive). The GI50 (UO-31) was > 100 µM (inactive).
